Experimental data taken from US20220257595A1, “MACITENTAN FOR USE IN TREATING PORTOPULMONARY HYPERTENSION” (ACTELION PHARMACEUTICALS LTD, priority 2019, published 2022).

How the values were obtained:
patients with PoPH [1] = assay: Post-hoc: change in mPAP / PVR by baseline mPAP / PVR category; type: in vivo, human; conditions: for PVR Change from baseline to Week 12, Median / PVR Week 12, Median / PVR Change from baseline to Week 12, Mean / PVR Week 12, Mean / mPAP Week 12, Median / mPAP Week 12, Mean / mPAP Change from baseline to Week 12, Median / mPAP Change from baseline to Week 12, Mean: 10 mg, Full Analysis Set
Excerpt: This example provides post hoc analyses of the study performed in Example 1. These analyses include: • To assess the effect of macitentan on mean pulmonary arterial pressure (mPAP) related to pre-treatment mPAP. • To assess the effect of macitentan on pulmonary vascular resistance (PVR) related to pre-treatment PVR.
The following exploratory endpoints were defined for the post hoc analyses: • mPAP change related to pre-treatment mPAP. • PVR change related to pre-treatment PVR
All analyses were performed on the full analysis set (FAS, as per randomization, N=85) and no data imputation was performed.
Risk categories are noted in Table 38. To analyze change in mPAP relative to baseline mPAP, the same mPAP categories were used as for transplant perioperative risk classification (Table 38). For the analysis of change in PVR relative to baseline PVR, waitlist mortality risk PVR categories were used (Table 38).

patients with PoPH [2] = assay: PORTICO safety: liver test and hemoglobin laboratory abnormalities; type: in vivo
Excerpt: For the evaluation of treatment-emergent safety endpoints in the DB phase, the observation period for each individual subject started at the time of the first administration of macitentan or placebo and ended with the start of OL treatment or 30 days after DB treatment discontinuation (whichever occurred first). The safety variables listed below apply to the DB treatment-emergent period and the macitentan treatment-emergent period. The DB treatment-emergent period was defined as the period from the DB treatment start date up to the EOT-DB+30 days or to the EOT-DB for patients entering OL. The macitentan treatment-emergent period was defined as the period from the first intake of macitentan up to end of macitentan treatment (EOMT)+30 days. EOMT was defined as EOT-DB (for patient who received macitentan only in the DB period) or EOT-OL when applicable. For patients entering OLE, the EOMT is EOT-OL. • Treatment-emergent AEs • Treatment-emergent deaths • Treatment-emergent serious adverse events (SAEs) • AEs leading to premature discontinuation of study treatment • Occurrence of post-baseline LFT (ALT and/or AST) abnormalities, classified as: • ≥3×ULN; • ≥5×ULN; • ≥8×ULN; • ≥3×ULN and <5×ULN; • […] and <8×ULN. • Occurrence of post-baseline ALT and/or AST abnormality 3×ULN and concomitant (i.e., at the same time) total bilirubin ≥2×ULN • Occurrence of post-baseline ALT and/or AST abnormality ≥3×ULN and concomitant (i.e., at the same time) total bilirubin ≥2×ULN and increased as compared to baseline • Occurrence of hemoglobin abnormalities, classified as: • ≤80 g/L, • >80 and ≤100 g/L, • decrease from baseline ≥20 g/L and <50 g/L, • decrease from baseline ≥50 g/L, • <100 g/L and concurrent (i.e., at the same time) decrease from baseline ≥20 g/L. • Other treatment-emergent marked laboratory abnormalities • Change from baseline/macitentan baseline to EOT-DB/EOMT in vital signs • Change from baseline/macitentan baseline to EOT-DB/EOMT in laboratory variables • Change from baseline/macitentan baseline to EOT-DB/EOMT in Child-Pugh classification • Change from baseline/macitentan baseline to EOT-DB/EOMT in MELD score
Treatment-emergent liver test and hemoglobin abnormalities are those that occurred during the DB treatment-emergent (SS) and macitentan treatment-emergent (MTS) periods that were not present at baseline.
For post-baseline liver test abnormalities, the following events are considered: • ALT and/or AST ≥3×ULN, • ALT and/or AST ≥5×ULN, • ALT and/or AST ≥8×ULN, • ALT and/or AST ≥3×ULN and <5×ULN, • ALT and/or AST ≥5×ULN and <8×ULN, • ALT and/or AST ≥3×ULN and concomitant (i.e., at the same time) total bilirubin ≥2×ULN. • ALT and/or AST 3×ULN and concomitant (i.e., at the same time) total bilirubin ≥2×ULN and increased as compared to baseline
The highest ALT or AST value at any post-baseline time point of assessment for DB treatment-emergent (SS) and macitentan treatment-emergent (MTS) periods was considered in the evaluation of incidences.
For the occurrence of post-baseline hemoglobin abnormalities, the following events were considered in the evaluation of incidences: • Hemoglobin ≤80 g/L, • Hemoglobin >80 and […], • Hemoglobin decrease from baseline ≥20 g/L and <50 g/L, • Hemoglobin decrease from baseline ≥50 g/L, • Hemoglobin <100 g/L and concurrent (i.e., at the same time) decrease from baseline ≥20 g/L.
The lowest hemoglobin value at any post-baseline time point of assessment for DB treatment-emergent (SS) and macitentan treatment-emergent (MTS) periods was considered in the evaluation of incidences.

[3] = PVR at baseline <= 450 dyn · sec/cm^5, n 12
[4] = PVR at baseline > 450 dyn · sec/cm^5, n 27
[5] = mPAP at baseline < 35 mmHg, n 2
[6] = DB phase, Safety set, 10 mg, N = 43, most extreme post-baseline value
[7] = single macitentan-treated patient, DB phase
[8] = single patient, DB+OL phase, malignant ascites and hepatic encephalopathy

CCCNS(=O)(=O)Nc1ncnc(OCCOc2ncc(Br)cn2)c1-c1ccc(Br)cc1 [macitentan, N-[5-(4-Bromophenyl)-6-[2-[(5-bromo-2-pyrimidinyl)oxy]ethoxy]-4-pyrimidinyl]-N′-propylsulfamide]
Macitentan-treated patients with a decrease in PVR at Week 12 compared to baseline (patients with PoPH [1]; FAS no imputation, 41 patients): 95.3% | Macitentan-treated patients with a decrease in mPAP at Week 12 compared to baseline (patients with PoPH [1]; FAS no imputation, thirty-eight patients): 88.3% | PVR Change from baseline to Week 12, Median (patients with PoPH [1]; [3]): −120.0 dyn · sec/cm^5 | PVR Week 12, Median (patients with PoPH [1]; [3]): 248.7 dyn · sec/cm^5 | PVR Change from baseline to Week 12, Mean (patients with PoPH [1]; PVR at baseline <= 450 dyn · sec/cm^5, n 12, SD 71.23): −116.4 dyn · sec/cm^5 | PVR Week 12, Mean (patients with PoPH [1]; PVR at baseline <= 450 dyn · sec/cm^5, n 12, SD 86.64): 264.6 dyn · sec/cm^5 | PVR Change from baseline to Week 12, Median (patients with PoPH [1]; [4]): −244.9 dyn · sec/cm^5 | PVR Week 12, Median (patients with PoPH [1]; [4]): 382.5 dyn · sec/cm^5 | PVR Change from baseline to Week 12, Mean (patients with PoPH [1]; PVR at baseline > 450 dyn · sec/cm^5, n 27, SD 125.48): −249.4 dyn · sec/cm^5 | PVR Week 12, Mean (patients with PoPH [1]; PVR at baseline > 450 dyn · sec/cm^5, n 27, SD 130.62): 400.7 dyn · sec/cm^5 | Mean (SD) decrease in mPAP at Week 12 (patients with PoPH [1]; and <45 mmHg): 5.2 (4.22) mmHg | Mean (SD) decrease in PVR at Week 12 (patients with PoPH [1]; baseline PVR <450 dyn·s/cm^5): 116.4 (71.23) dyn·s/cm^5 | Mean (SD) decrease in PVR at Week 12 (patients with PoPH [1]; baseline PVR >450 dyn·s/cm^5): 249.4 (125.48) dyn·s/cm^5 | Mean (SD) decrease in mPAP at Week 12 (patients with PoPH [1]; baseline mPAP <35 mmHg): 2.0 (5.66) mmHg | Mean (SD) decrease in mPAP at Week 12 (patients with PoPH [1]; baseline mPAP ≥45 mmHg): 7.8 (5.27) mmHg | mPAP Week 12, Median (patients with PoPH [1]; mPAP at baseline 35 to < 45 mmHg, n 13): 36.0 mmHg | mPAP Week 12, Mean (patients with PoPH [1]; mPAP at baseline 35 to < 45 mmHg, n 13, SD 3.84): 35.4 mmHg | mPAP Change from baseline to Week 12, Median (patients with PoPH [1]; [5]): −2.0 mmHg | mPAP Week 12, Median (patients with PoPH [1]; [5]): 29.0 mmHg | mPAP Change from baseline to Week 12, Mean (patients with PoPH [1]; mPAP at baseline < 35 mmHg, n 2, SD 5.66): −2.0 mmHg | mPAP Week 12, Mean (patients with PoPH [1]; mPAP at baseline < 35 mmHg, n 2, SD 8.49): 29.0 mmHg | mPAP Week 12, Median (patients with PoPH [1]; mPAP at baseline >= 45 mmHg, n 24): 43.0 mmHg | mPAP Week 12, Mean (patients with PoPH [1]; mPAP at baseline >= 45 mmHg, n 24, SD 7.04): 44.0 mmHg | mPAP Change from baseline to Week 12, Median (patients with PoPH [1]; mPAP at baseline ≥ 35 to < 45 mmHg, n 13): −5.0 mmHg | mPAP Change from baseline to Week 12, Mean (patients with PoPH [1]; mPAP at baseline ≥ 35 to < 45 mmHg, n 13, SD 4.22): −5.2 mmHg | mPAP Change from baseline to Week 12, Median (patients with PoPH [1]; mPAP at baseline ≥ 45 mmHg, n 24): −7.5 mmHg | mPAP Change from baseline to Week 12, Mean (patients with PoPH [1]; mPAP at baseline ≥ 45 mmHg, n 24, SD 5.27): −7.8 mmHg | Patients with hemoglobin decreased to ≤80 g/L (patients with PoPH [2]; DB phase): none | ALT or AST >= 5*ULN (patients with PoPH [2]; [6]): 0/43 | ALT or AST >= 5*ULN and <8*ULN (patients with PoPH [2]; [6]): 0/43 | ALT or AST >= 8*ULN (patients with PoPH [2]; [6]): 0/43 | Hemoglobin <= 80 g/L (patients with PoPH [2]; [6]): 0/43 | Patients with hemoglobin decreased to ≤100 g/L (patients with PoPH [2]; DB phase, macitentan group): 3 patients | Patients with hemoglobin decreases of ≥20 g/L (patients with PoPH [2]; DB phase, macitentan group (12 patients)): 27.9% | Patients with aminotransferase increase to >3×ULN (patients with PoPH [2]; DB phase, macitentan-treated): 1 patient | ALT or AST >= 5*ULN and <8*ULN (patients with PoPH [2]; macitentan DB + OL phase, Macitentan treated set, N = 84): 0/84 | Patients with aminotransferase increase to >3×ULN (patients with PoPH [2]; macitentan DB+OL phase): 2 patients | Patients with hemoglobin decrease of ≥50 g/L (patients with PoPH [2]; macitentan DB+OL phase): 6 patients | Patients with hemoglobin decreased to ≤80 g/L (patients with PoPH [2]; macitentan DB+OL phase): 4 patients | Patients with hemoglobin decreased to ≤100 g/L (patients with PoPH [2]; macitentan DB+OL phase): 13 patients | Patients with hemoglobin decreases of ≥20 g/L (patients with PoPH [2]; macitentan DB+OL phase (31 patients)): 37.3% | ALT in the patient with aminotransferase increase (patients with PoPH [2]; [7]): 3.1 ×ULN | AST in the patient with aminotransferase increase (patients with PoPH [2]; [7]): 3.2 ×ULN | Bilirubin in the patient with aminotransferase increase (patients with PoPH [2]; [7]): 2.7 ×ULN | ALT in the additional patient with aminotransferase increase (patients with PoPH [2]; [8]): 3.6 ×ULN | AST in the additional patient with aminotransferase increase (patients with PoPH [2]; [8]): 8.6 ×ULN | Bilirubin in the additional patient with aminotransferase increase (patients with PoPH [2]; [8]): 11.1 ×ULN | Macitentan-treated patients with Hy's Law range liver test abnormalities (patients with PoPH [2]; whole study): 2 patients
